According to patent US4684664A, “Derivatives of β-(4-isocyano-1,2,3,4-diepoxycyclopentyl) acrylic acid” (Kureha Kagaku Kogyo Kabushiki Kaisha, priority 1984, dated 1987):
≈ marks a conversion by molar mass, not a printed value.

Tests used:
Assay type in all cases: cell-based
[1] = test system: Proteus vulgaris HX-19; assay: Antibacterial activity, agar-dilution MIC, organism No. 21; conditions: Proteus vulgaris, HX19; Organism No. 21, bouillon-agar; read-out: Minimum Inhibitory Concentration
Description: (§1) Agar-dilution method was used for determination of the antibacterial activity and antifungal activity while using bouillon-agar culture medium, and the minimum inhibitory concentration of the specimen was expressed by μg/ml of the culture medium.

[2] = test system: Salmonella typhi 901; assay: Antibacterial activity, agar-dilution MIC, organism No. 9; conditions: Salmonella enterica, TYPHI, read-out: Minimum Inhibitory Concentration
Description: as §1

[3] = test system: Escherichia coli NIHJ-JC-2; assay: Antibacterial activity, agar-dilution MIC, organism No. 5; conditions: Escherichia coli, NIHJJC2; Organism No. 5, bouillon-agar; read-out: Minimum Inhibitory Concentration
Description: as §1

[4] = test system: Staphylococcus aureus Terajima; assay: Antibacterial activity, agar-dilution MIC, organism No. 2; conditions: Staphylococcus aureus; Organism No. 2, bouillon-agar; read-out: Minimum Inhibitory Concentration
Description: as §1

[5] = test system: Micrococcus luteus ATCC 9341; assay: Antibacterial activity, agar-dilution MIC, organism No. 25; conditions: Micrococcus luteus, ATCC9341; Organism No. 25, bouillon-agar; read-out: Minimum Inhibitory Concentration
Description: as §1

[6] = test system: Enterobacter aerogenes ATCC 13048; assay: Antibacterial activity, agar-dilution MIC, organism No. 23; conditions: Klebsiella aerogenes, ATCC13048; Organism No. 23, bouillon-agar; read-out: Minimum Inhibitory Concentration
Description: as §1

[7] = test system: Salmonella enteritidis G 14; assay: Antibacterial activity, agar-dilution MIC, organism No. 12; conditions: Salmonella enterica, ENTERITIDIS; Organism No. 12, bouillon-agar; read-out: Minimum Inhibitory Concentration
Description: as §1

[8] = test system: Pseudomonas aeruginosa PAO 1; assay: Antibacterial activity, agar-dilution MIC, organism No. 17; conditions: Pseudomonas aeruginosa, PAO1; Organism No. 17, bouillon-agar; read-out: Minimum Inhibitory Concentration
Description: as §1

[9] = test system: Proteus rettgeri IFO 3850; assay: Antibacterial activity, agar-dilution MIC, organism No. 22; conditions: Providencia rettgeri, IFO3850; Organism No. 22, bouillon-agar; read-out: Minimum Inhibitory Concentration
Description: as §1

[10] = test system: Streptococcus pyogenes Cook; assay: Antibacterial activity, agar-dilution MIC, organism No. 4; conditions: Streptococcus pyogenes; Organism No. 4, bouillon-agar; read-out: Minimum Inhibitory Concentration
Description: as §1

[11] = test system: Pseudomonas aeruginosa IFO 3445; assay: Antibacterial activity, agar-dilution MIC, organism No. 15; conditions: Pseudomonas aeruginosa, IFO3445; Organism No. 15, bouillon-agar; read-out: Minimum Inhibitory Concentration
Description: as §1

[12] = test system: Aspergillus niger IFO 6342; assay: Antifungal activity, agar-dilution MIC, organism No. 30; conditions: Aspergillus niger, IFO6342; Organism No. 30, bouillon-agar; read-out: Minimum Inhibitory Concentration
Description: as §1

[13] = test system: Mycoplasma pneumoniae IID817; assay: Antimycoplasmal activity, MIC by phenol red colour change, organism No. 28; conditions: Mycoplasma, IID817; Organism No. 28, PPLO broth + 1% glucose, 37° C.; read-out: Minimum Inhibitory Concentration (MIC)
Protocol: Mycoplasma pneumoniae IID817 was used as the test microorganism in a culture medium prepared by adding 1% of glucose to "PPLO broth (manufactured by Difco Co.) liquid culture medium" at 37° C. with phenol red as an indicator, thereby culturing the test microorganism.

[14] = test system: Salmonella typhimurium IID 971; assay: Antibacterial activity, agar-dilution MIC, organism No. 8; conditions: Salmonella enterica; Organism No. 8, bouillon-agar; read-out: Minimum Inhibitory Concentration
Description: as §1

[15] = test system: Proteus vulgaris OX-19; assay: Antibacterial activity, agar-dilution MIC, organism No. 20; conditions: Proteus vulgaris, OX19; Organism No. 20, bouillon-agar; read-out: Minimum Inhibitory Concentration
Description: as §1

[16] = test system: Salmonella paratyphi-A 1015; assay: Antibacterial activity, agar-dilution MIC, organism No. 10; conditions: Salmonella enterica, PARATYPHI, read-out: Minimum Inhibitory Concentration
Description: as §1

[17] = test system: Bacillus subtilis ATCC 6633; assay: Antibacterial activity, agar-dilution MIC, organism No. 14; conditions: Bacillus subtilis, ATCC6633; Organism No. 14, bouillon-agar; read-out: Minimum Inhibitory Concentration
Description: as §1

[18] = test system: Staphylococcus aureus MS 353; assay: Antibacterial activity, agar-dilution MIC, organism No. 3; conditions: Staphylococcus aureus, MS353; Organism No. 3, bouillon-agar; read-out: Minimum Inhibitory Concentration
Description: as §1

[19] = test system: Pseudomonas aeruginosa NCTC 10490; assay: Antibacterial activity, agar-dilution MIC, organism No. 16; conditions: Pseudomonas aeruginosa, NCTC10490; Organism No. 16, bouillon-agar; read-out: Minimum Inhibitory Concentration
Description: as §1

[20] = test system: Proteus morganii IFO 3848; assay: Antibacterial activity, agar-dilution MIC, organism No. 18; conditions: Morganella morganii, IFO3848; Organism No. 18, bouillon-agar; read-out: Minimum Inhibitory Concentration
Description: as §1

[21] = test system: Salmonella shottmuelleri 8006; assay: Antibacterial activity, agar-dilution MIC, organism No. 11; conditions: Salmonella, 8006; Organism No. 11, bouillon-agar; read-out: Minimum Inhibitory Concentration
Description: as §1

[22] = test system: Staphylococcus aureus FDA 209PJc-1; assay: Antibacterial activity, agar-dilution MIC, organism No. 1; conditions: Staphylococcus aureus, FDA209PJC1; Organism No. 1, bouillon-agar; read-out: Minimum Inhibitory Concentration
Description: as §1

[23] = test system: Streptococcus pyogenes IFO 3340; assay: Antibacterial activity, agar-dilution MIC, organism No. 26; conditions: Streptococcus pyogenes, IFO3340; Organism No. 26, bouillon-agar; read-out: Minimum Inhibitory Concentration
Description: as §1

[24] = test system: Candida albicans IAM 4905; assay: Antifungal activity, agar-dilution MIC, organism No. 29; conditions: Candida albicans, IAM4905; Organism No. 29, bouillon-agar; read-out: Minimum Inhibitory Concentration
Description: as §1

[25] = test system: Escherichia coli K12 C600 IAM 1264; assay: Antibacterial activity, agar-dilution MIC, organism No. 6; conditions: Escherichia coli, IAM1264; Organism No. 6, bouillon-agar; read-out: Minimum Inhibitory Concentration
Description: as §1

[26] = test system: Proteus mirabilis IFO 3849; assay: Antibacterial activity, agar-dilution MIC, organism No. 19; conditions: Proteus mirabilis, IFO3849; Organism No. 19, bouillon-agar; read-out: Minimum Inhibitory Concentration
Description: as §1

[27] = test system: Streptococcus faecium IFO 3826; assay: Antibacterial activity, agar-dilution MIC, organism No. 27; conditions: Enterococcus faecium, IFO3826; Organism No. 27, bouillon-agar; read-out: Minimum Inhibitory Concentration
Description: as §1

[28] = test system: Klebsiella pneumoniae PCI-602; assay: Antibacterial activity, agar-dilution MIC, organism No. 7; conditions: Klebsiella pneumoniae, PCI602; Organism No. 7, bouillon-agar; read-out: Minimum Inhibitory Concentration
Description: as §1

[29] = test system: Enterobacter cloacae 963; assay: Antibacterial activity, agar-dilution MIC, organism No. 24; conditions: Enterobacter cloacae, 963; Organism No. 24, bouillon-agar; read-out: Minimum Inhibitory Concentration
Description: as §1

| Structure (SMILES) | MIC [1] [µg/mL] | MIC [2] [µg/mL] | MIC [3] [µg/mL] | MIC [4] [µg/mL] | MIC [5] [µg/mL] | MIC [6] [µg/mL] | MIC [7] [µg/mL] | MIC [8] [µg/mL] | MIC [9] [µg/mL] | MIC [10] [µg/mL] | MIC [11] [µg/mL] | MIC [12] [µg/mL] | MIC [13] [µg/mL] | MIC [14] [µg/mL] | MIC [15] [µg/mL] | MIC [16] [µg/mL] | MIC [17] [µg/mL] | MIC [18] [µg/mL] | MIC [19] [µg/mL] | MIC [20] [µg/mL] | further results |
| --- | --- | --- | --- | --- | --- | --- | --- | --- | --- | --- | --- | --- | --- | --- | --- | --- | --- | --- | --- | --- | --- |
| [C-]#[N+]C12CC3(/C=C/C(=O)NC4C(=O)N5C4SC(C)(C)C5C(=O)OCC(=O)c4ccc(Br)cc4)OC3C1O2 (centres unmarked) [Compound No. 33] | 1.56 (≈ 2.65 µM) | 3.13 (≈ 5.32 µM) | 25 (≈ 42.5 µM) | 0.78 (≈ 1.33 µM) | 3.13 (≈ 5.32 µM) | > 100 | 1.56 (≈ 2.65 µM) | > 200 | > 100 | 0.78 (≈ 1.33 µM) | > 200 | 3.13 (≈ 5.32 µM) | < 0.2 | 12.5 (≈ 21.2 µM) | 100 (≈ 170 µM) | 0.38 (≈ 0.646 µM) | 0.78 (≈ 1.33 µM) | 1.56 (≈ 2.65 µM) | > 200 | > 200 | MIC [21]: 0.38 µg/mL (≈ 0.646 µM); MIC [22]: 1.56 µg/mL (≈ 2.65 µM); MIC [23]: 0.8 µg/mL (≈ 1.36 µM); MIC [24]: 1.56 µg/mL (≈ 2.65 µM); MIC [25]: 25 µg/mL (≈ 42.5 µM); MIC [26]: > 200 µg/mL; MIC [27]: 0.8 µg/mL (≈ 1.36 µM); MIC [28]: 25 µg/mL (≈ 42.5 µM); MIC [29]: 25 µg/mL (≈ 42.5 µM) |
| [C-]#[N+]C12CC3(/C=C/C(=O)N[C@@H](C(=O)OCc4ccccc4)C(C)C)OC3C1O2 (some centres unmarked) [compound 30] | > 200 | > 200 | > 200 | > 200 | 1.56 (≈ 4.08 µM) | > 200 | > 200 | > 200 | > 200 | > 200 | > 200 | > 100 | > 100 | > 200 | > 200 | > 200 | > 200 | > 200 | > 200 | > 200 | MIC [21]: > 200 µg/mL; MIC [22]: > 200 µg/mL; MIC [23]: > 200 µg/mL; MIC [24]: > 100 µg/mL; MIC [25]: > 200 µg/mL; MIC [26]: > 200 µg/mL; MIC [27]: > 200 µg/mL; MIC [28]: > 200 µg/mL; MIC [29]: > 200 µg/mL |
| [C-]#[N+]C12CC3(/C=C/C(=O)N[C@@H](Cc4ccccc4)C(=O)OCc4ccccc4)OC3C1O2 (some centres unmarked) [compound 31] | > 200 | > 200 | > 200 | > 200 | 6.25 (≈ 14.5 µM) | > 200 | > 200 | > 200 | > 200 | > 200 | > 200 | > 100 | > 100 | > 200 | > 200 | > 200 | > 200 | > 200 | > 200 | > 200 | MIC [21]: > 200 µg/mL; MIC [22]: > 200 µg/mL; MIC [23]: > 200 µg/mL; MIC [24]: > 100 µg/mL; MIC [25]: > 200 µg/mL; MIC [26]: > 200 µg/mL; MIC [27]: > 200 µg/mL; MIC [28]: > 200 µg/mL; MIC [29]: > 200 µg/mL |
| [C-]#[N+]C12CC3(/C=C/C(=O)Nc4ccc(C)cc4)OC3C1O2 (centres unmarked) [compound 37] | < 0.05 | 1.56 (≈ 5.53 µM) | 25 (≈ 88.6 µM) | 1.56 (≈ 5.53 µM) | < 0.05 | 100 (≈ 354 µM) | 1.56 (≈ 5.53 µM) | > 200 | 3.13 (≈ 11.1 µM) | 12.5 (≈ 44.3 µM) | > 200 | 1.56 (≈ 5.53 µM) | 0.2 | 6.25 (≈ 22.1 µM) | 0.2 (≈ 0.708 µM) | 0.2 (≈ 0.708 µM) | 6.25 (≈ 22.1 µM) | 0.39 (≈ 1.38 µM) | > 200 | 12.5 (≈ 44.3 µM) | MIC [21]: 0.2 µg/mL (≈ 0.708 µM); MIC [22]: 0.39 µg/mL (≈ 1.38 µM); MIC [23]: 1.56 µg/mL (≈ 5.53 µM); MIC [24]: 0.39 µg/mL (≈ 1.38 µM); MIC [25]: 25 µg/mL (≈ 88.6 µM); MIC [26]: 200 µg/mL (≈ 708 µM); MIC [27]: 25 µg/mL (≈ 88.6 µM); MIC [28]: 0.1 µg/mL (≈ 0.354 µM); MIC [29]: 50 µg/mL (≈ 177 µM) |
